Data from US20240115704A1, “TREATMENT OF CANCER WITH NK CELLS AND A CD38-TARGETED ANTIBODY” (Artiva Biotherapeutics, Inc., priority 2021, published 2024).

Experiments:
K562 = test: Cytotoxicity of steroid treated AB-101 cells against K562; format: cell-based; conditions: 5:1 E:T
Daudi = test: Cytotoxicity of steroid treated AB-101 cells against Daudi; format: cell-based; conditions: 48 hours; particularly when combined with 500 IU/mL of IL-2; 5:1 E:T
NCI-H929 = test: Cytotoxicity of steroid treated AB-101 cells against NCI-H929; format: cell-based; conditions: 48 hours; particularly when combined with 500 IU/mL of IL-2; 5:1 E:T
[1] = system: K562, Daudi, RPMI-8226, and NCI-H929; test: Impact of steroids on AB-101+daratumumab ADCC; conditions: 48 hours steroid treatment; 5:1 E:T; with daratumumab
[2] = system: Burkitt's lymphoma cell line Daudi; test: Complement fixation assay (CDC), assay control tumor line; format: cell-based; conditions: human complement serum; lowest concentration tested
Source text: Burkitt's lymphoma cell line Daudi was included as an assay control.

[3] = system: CD38+ multiple myeloma cell line MM.1S; test: Daratumumab titration, ADCC by AB-101 cells against MM.1S; format: cell-based; conditions: AB-101 at 5:1 E:T, 4 hours
Experimental: (§1) After 4 hours on co-culture, the samples were analyzed by flow cytometry.

CD38− cell line K562 = test: Daratumumab titration, cytotoxicity of AB-101 cells against K562; format: cell-based; conditions: AB-101 at 5:1 E:T, 4 hours
Experimental: as §1

Compound | basal cytotoxicity of steroid treated AB-101 cells (K562; 0.1, 1, 10 μM for 48 hours, all concentrations tested, with the exception of one cell lot) | cytotoxicity of steroid treated AB-101 cells with 500 IU/ml of IL-2 (K562; 500 IU/ml IL-2 during steroid treatment) | basal cytotoxicity of steroid treated AB-101 cells (Daudi) | basal cytotoxicity of steroid treated AB-101 cells (NCI-H929) | ADCC potential of steroid treated AB-101 cells [1] | concentration of daratumumab at which lysis reached saturation [2] [µg/mL] | ADCC compared to IgG1 control antibodies [3] | cytotoxicity of AB-101 cells, daratumumab vs IgG control (CD38− cell line K562)
C[C@@H]1C[C@H]2[C@@H]3CCC4=CC(=O)C=C[C@]4(C)[C@@]3(F)[C@@H](O)C[C@]2(C)[C@@]1(O)C(=O)CO [Dexamethasone, (8S,9R,10S,11S,13S,14S,16R,17R)-9-fluoro-11,17-dihydroxy-17-(2-hydroxyacetyl)-10,13,16-trimethyl-6,7,8,11,12,14,15,16-octahydrocyclopenta[a]phenanthren-3-one] | reduced | restored cytotoxicity | enhanced | enhanced | did not abolish | – | – | –
daratumumab: mAb that targets CD38, approved for multiple myeloma | – | – | – | – | – | ≤ 0.41 | elicited ADCC | no change in cytotoxicity
